Legend:
CD34+ MUTZ3 cells = assay: Drug-induced differentiation of isolated CD34+ MUTZ3 cells; format: cell-based, human; settings: for share of induced CD1a+ cells also expressing Langerin: CD34+ sorted cells
Method: (§1) For mitoxantrone and doxorubicin cultures, 0.1-0.2 million cells/ml of MUTZ3 progenitors or CD34+, CD14+ and double negative (DN) magnetic bead sorted (MACS) MUTZ3 subsets (Miltenyi Biotec, Bergisch Gladbach, Germany) were seeded in 12-well plates in MUTZ3 routine medium or MUTZ3-DC/LC medium in the absence or presence of 1.04 nM, 2.08 nM, 5.6 nM, 16.7 nM mitoxantrone or 16.7 nM or 100 nM doxorubicin and were cultured for 72-96 hours before quantification of viable cells by trypan blue exclusion and phenotypic characterization by flowcytometry. DC and LC were matured (as above) on day 3 or 4 for 24 hours and were functionally tested in mixed leukocyte reaction or migration assays. In case of ABC transporter inhibition, 200 nM Ko-143 was added on day 0 to block BCRP activity.
(§2) Cells were immunophenotyped using the following FITC- and for PE-conjugated Mabs reactive against: CD1a (1:25), CD54 (1:25), CD80 (1:25), CD86 (1:25), CD40 (1:10) (PharMingen, San Diego, Calif.), CD14 (1:25), HLA-DR (1:25), DC-SIGN (1:10) (BD Biosciences, San Jose, Calif.), CD83 (1:10), CD34 (1:10), Langerin (1:10) (Immunotech, Marseille, France). In short, 2.5 to 5·10^4 cells were washed in PBS supplemented with 0.1% BSA and 0.02% NaN3 and incubated with specific or corresponding control Mabs for 30 minutes at 4° C. Where applicable, AnnexinV and/or PI (Propidium iodide) were added after marker staining and 10 minutes prior to analysis. Cells were washed and analyzed on a FACS-calibur flow cytometer (Becton and Dickinson, San Jose, Calif.) equipped with CellQuest analysis software and the results were expressed as mean or median fluorescence intensity or the percentage of positive cells.
To see whether the skewing effect was due to CD34^+ cell death, automatically leading to an altered CD34^+/CD14^+ ratio or whether it induced differentiation of CD34^+ cells into CD14^+ cells and LC, isolated CD34^+ and CD14^+ cells were incubated with 16.7 nM mitoxantrone or 100 nM doxorubicin for 72 hours and were analyzed for differentiation induction.

MUTZ3 progenitors [1] = assay: 96 hour cytotox assay (Trypan blue exclusion); format: cell-based, human
Method: as §1
MUTZ3 progenitor cells were analyzed for their sensitivity to the cytostatic drug mitoxantrone. […] (An example of such trypan blue assay is: place a suitable volume of a cells suspension in appropriate tube add an equal volume of 0.4% Trypan blue and gently mix, let stand for 5 minutes at room temperature. Place 10 μl of stained cells in a hemocytometer and count the number of viable (unstained) and dead (stained) cells. Calculate the average number of unstained cells in each quadrant, and multiply by 2*10^4 to find cells/ml. The percentage of viable cells is the number of viable cells divided by the number of dead and viable cells, and the IC50 can be determined)

MUTZ3 progenitors [2] = assay: Expansion and DC marker expression of MUTZ3 progenitors cultured with drug (flow cytometry); format: cell-based, human
Method: as §1, §2
Similar experiments were carried out with the drug doxorubicin.

[3] = test system: MUTZ3 subpopulations (CD14+, CD34+, DN); assay: Apoptosis and cell death (Annexin V) in MACS-separated MUTZ3 subpopulations; format: cell-based, human
Method: as §1, §2

CD14+ MUTZ3 cells = assay: Drug-induced differentiation of isolated CD14+ MUTZ3 cells; format: cell-based, human; settings: 72 hours, vs PBS control
Method: as §1
as §2, with “In short, 2.5 to 5·10^4 cells were washed in PBS supplemented with 0.1% BSA and 0.02% NaN3 and incubated with specific or corresponding control Mabs for 30 minutes at 4° C. Where applicable, AnnexinV and/or PI (Propidium iodide) were added after marker staining and 10 minutes prior to analysis.” left out, “cells. […]” for “cells.”

MUTZ3-LC cultures = assay: Acceleration of MUTZ3-LC differentiation in the presence of cytokines; format: cell-based, human
Method: The AML-derived CD34+ MUTZ3 cell line was cultured as described before (Masterson A. J. (2002) Blood 100, 701-703.). In brief, MUTZ3 progenitors were cultured in MEM-alpha (Minimum essential medium, Gibco) containing 20% fetal calves serum (FCS), 100 IU/ml sodium-penicillin, 100 microg/ml streptomycin, 2 mM L-glutamine (pen/strep/glut), 50 microM beta-mercaptoethanol (2ME) and 10% 5637 conditioned medium (MUTZ3 routine medium) in 12-well plates (Co-star) at a concentration of 0.2 million cells/ml and were passaged twice weekly. LC were cultured in MEM-alpha containing 20% FCS, pen/strep/glut, 2ME and 10 ng/ml TGF-beta 1 (Biovision, Mountain View, Calif.), 100 ng/ml rhGM-CSF (Sagramostim, Berlex) and 2.5 ng/ml TNFalpha (Strathmann Biotec) (MUTZ3-LC medium) for 10 days in 12-well plates at a concentration of 0.1 million cells/ml, adding cytokines at day 0, 4 and 7. Interstitial DC were cultured in MEM-alpha containing 20% FCS, pen/strep/glut, 2ME and 10 ng/ml IL-4 (R&D), 100 ng/ml rhGM-CSF and 2.5 ng/ml TNFalpha (MUTZ3-DC medium) Where applicable, immature DC and LC were matured, respectively, by adding 50 ng/ml TNFalpha, 100 ng/ml IL-6 (Strathmann Biotec), […] (Strathmann Biotec) and 1 microg/ml prostaglandin E2 (PGE2) (Sigma Aldrich) for 48 hours.
as §1, §2
Next we tested whether the addition of mitoxantrone or doxorubicin at the start of MUTZ3-LC cultures could boost differentiation. […] In FIG. 4A FSC/SSC plots of day 4 LC cultured with PBS or mitoxantrone and CD1a/Langerin expression on these cultures are depicted.

[4] = test system: CD34+ heamatopoietic precursors isolated from human blood; assay: Response of CD34+ heamatopoietic progenitors from blood to mitoxantrone; format: cell-based; settings: 16.7 nM mitoxantrone
[5] = test system: CD14+ monocytes isolated from blood; assay: Response of CD14+ monocytes isolated from blood to mitoxantrone; format: cell-based, human
[6] = test system: MUTZ3-DC and -LC cultures; assay: Titration of mitoxantrone in MUTZ3-DC and -LC cultures, phenotype analysis; format: cell-based, human
Method: as §1, §2
In MUTZ3-DC and -LC cultures, a 2-step titration of the 16.7 nM mitoxantrone concentration was performed and DC/LC phenotypes were analyzed after 72-96 hours.

MUTZ3-DC = assay: Trans-well migration towards CCL19 and CCL21; format: cell-based, human; settings: day 4 mitoxantrone-generated DC
Method: as §1
(§3) If such mitoxantrone-generated DC are to be used for future vaccination strategies, they need to be functionally fully active. Therefore MUTZ3-DC cultured in the absence or presence of mitoxantrone, were analyzed in a trans-well assay for their capacity to migrate towards the chemokines CCL19 and CCL21 (FIG. 7A) and were tested in a MLR for their capacity to stimulate allogeneic T cell proliferation (FIG. 7B).

[7] = test system: MUTZ3-DC / peripheral blood lymphocytes; assay: Mixed leukocyte reaction (MLR), T cell proliferation; format: cell-based, human; settings: day 4 mitoxantrone-generated DC
Method: 1·10^2-3·10^4 DC were co-cultured with 1·10^5 peripheral blood lymphocytes for 4 days in 96-wells plates in IMDM (Iscove's modified dulbecco's medium) containing 10% human pooled serum (HPS), pen/strep/glut and 2ME. At day 4, 2.5 μCi/ml [^3H]-thymidine (6.7 Ci/mmol, MP Biomedicals, Irvine, Calif.) was added per well for 16 hours. Plates were harvested onto glass fiber filtermats (Packard Instruments, Groningen, The Netherlands) using a Skatron cell harvester (Skatron Instruments, Norway), and [^3H]-thymidine incorporation was quantified using a Topcount NXT Microbetacounter (Packard, Meriden, Conn.).
as §3

human skin DC = assay: Human skin explant DC migration after intradermal injection; format: cell-based
Method: To establish whether mitoxantrone could be beneficial as a local adjuvant, human skin explants were intra-dermally injected with GM-CSF and IL-4 in combination with 2.08 nM, 5.6 nM or 16.7 nM mitoxantrone and 6 mm punch biopsies were floated in medium containing the same concentration of mitoxantrone. Skin DC were allowed to migrate from the biopsies for 2 days, after which they were harvested, quantified and phenotyped.

[8] = 2.08 nM mitoxantrone, mature day 4 MUTZ3-DC/LC

`COc1ccc2c3c([nH]c2c1)[C@H](CC(C)C)N1C(=O)[C@H](CCC(=O)OC(C)(C)C)NC(=O)[C@@H]1C3` [Ko-143] was tested, and the “abrogation of mitoxantrone-induced CD1a and Langerin expression by BCRP inhibitor” value (CD34+ MUTZ3 cells; 200 nM Ko-143 added on day 0, mitoxantrone-treated CD34+ MUTZ3 cells) was “could not abrogate”.

`COc1cccc2c1C(=O)c1c(O)c3c(c(O)c1C2=O)C[C@@](O)(C(=O)CO)C[C@@H]3O[C@H]1C[C@H](N)[C@H](O)[C@H](C)O1` [doxorubicin] was tested, and the “IC70 concentration on MUTZ3” value (MUTZ3 progenitors [1]; cytotoxic effect) was roughly 100 nM, the “LC differentiation of MUTZ3 progenitors” value (MUTZ3 progenitors [2]; 16.7 nM doxorubicin) was “no effects were observed” and the “LC differentiation of MUTZ3 progenitors” value (MUTZ3 progenitors [2]; IC70 concentration of doxorubicin (~100 nM)) was “induced LC differentiation of MUTZ3 progenitors”. For the same molecule, the “apoptosis and cell death in the three MUTZ3 subpopulations, compared with mitoxantrone” value ([3]; 100 nM doxorubicin) was “Comparable results”, the “CD1a and Langerin expression on CD34+ MUTZ3 cells” value (CD34+ MUTZ3 cells; 100 nM doxorubicin, 72 hours) was “induced CD1a and Langerin expression” and the “share of induced CD1a+ cells also expressing Langerin” value (CD34+ MUTZ3 cells; 100 nM doxorubicin, 72 hours) was “approximately 50%”. The “percentages of CD1a+ or Langerin+ cells in CD14+ cells” value (CD14+ MUTZ3 cells; 100 nM doxorubicin) was “not affected”.

`O=C1c2c(O)ccc(O)c2C(=O)c2c(NCCNCCO)ccc(NCCNCCO)c21` [mitoxantrone] was tested, and the IC50 (MUTZ3 progenitors [1]; Homo sapiens, 96 hour, Trypan blue exclusion, n=3) was 1.5 ± 0.5 nM, the “IC60 concentration on MUTZ3 progenitors” value (MUTZ3 progenitors [1]; cytotoxic effect) was 5.6 nM and the “IC70 concentration on MUTZ3” value (MUTZ3 progenitors [1]; cytotoxic effect) was 16.7 nM. The “cell division (expansion)” value (MUTZ3 progenitors [2]; 5.6 nM and 16.7 nM mitoxantrone, 72 hours) was “dramatically compromising cell division”, the “differentiation of MUTZ3 progenitors (CD34+/CD14+ ratio, CD1a, Langerin, CD86, CD80)” value (MUTZ3 progenitors [2]; 5.6 nM and 16.7 nM mitoxantrone, 72 hours, no differentiating cytokines) was “drove the surviving MUTZ3 progenitors to differentiation” and the “apoptosis and cell death, CD34+ population” value ([3]; mitoxantrone, 72 hours) was “sensitive to the drug”. The “apoptosis and cell death, CD14+ population” value ([3]; mitoxantrone, 72 hours, Annexin V) was “not affected”, the “apoptosis and cell death, DN population” value ([3]; mitoxantrone, 72 hours, sensitivity relative to CD34+) was “to a lesser extent” and the “share of induced CD1a+ cells also expressing Langerin” value (CD34+ MUTZ3 cells; 16.7 nM mitoxantrone, 72 hours) was “approximately 50%”. For the same molecule, the “CD1a and Langerin expression in CD34+ subset” value (CD34+ MUTZ3 cells; 16.7 nM mitoxantrone, 72 hours, n=3, p=0.02 CD1a, p=0.03 Langerin) was “significant increase”, the “percentages of CD1a+ or Langerin+ cells in CD14+ cells” value (CD14+ MUTZ3 cells; 16.7 nM mitoxantrone) was “not affected” and the “expression levels of HLA-DR and CD54” value (MUTZ3-LC cultures; 16.7 nM mitoxantrone, day 4) was “higher expression levels”. The “expression of co-stimulatory molecules CD80 and CD86” value (MUTZ3-LC cultures; 16.7 nM mitoxantrone, day 4) was “enhanced expression”, the “percentage of CD14+ and CD34+ cells” value (MUTZ3-LC cultures; 16.7 nM mitoxantrone, day 4, 3 experiments, p=0.04 and p=0.02) was “significant decrease” and the “amount of cells expressing maturation marker CD83” value (MUTZ3-LC cultures; 16.7 nM mitoxantrone, day 4, p=0.03) was “significant raise”. For the same molecule, the “day on which fully differentiated cells were obtained” value (MUTZ3-LC cultures; mitoxantrone with cytokines, control cultures 8-10 days) was 4 days, the “cells CD1a hi Langerin+” value (MUTZ3-LC cultures; single dose 16.7 nM mitoxantrone at day 0, read day 4, control 25%) was 76% and the “CD34+ and CD14+ cell content” value ([4]; 72 hours, Flt3-L and SCF) was “loss of most CD34 positive cells and an increase in CD14 positive cells”. The “percentage of CD1a+ Langerin+ cells” value ([4]; within 72 hours, LC-skewing cytokines, n=2) was “increase”, the cell viability [5] was “no effect” and the differentiation induction [5] was “nor was any differentiation induction observed”. The “effect on MUTZ3-DC and -LC differentiation” value ([6]; 2.08 nM mitoxantrone, 72-96 hours) was “robust effect”, the “HLA-DR expression vs control cultures” value ([6]; 2.08 nM mitoxantrone, day 4 vs day 7 control) was “even higher than on the control cultures” and the “amount of CD1a, Langerin, CD80, CD40 and CD83 expressing cells” value [6, 8] was “increased”. For the same molecule, the “expression levels of CD80, CD86, CD40 and HLA-DR” value [6, 8] was “enhanced”, the “Langerin expression in MUTZ3-DC cultures” value ([6]; cultures supplied with mitoxantrone) was “increased” and the “capacity to migrate towards CCL19 and CCL21” value (MUTZ3-DC) was “comparable to day 7 matured control DC”. For the same molecule, the “capacity to stimulate allogeneic T cell proliferation” value [7] was “equipped to induce T cell proliferation”, the “increase in amount of migrated skin DC” value (human skin DC; 2.08 nM mitoxantrone with GM-CSF and IL-4, intradermal, 2 days) was 50-60% and the “increase in amount of migrated skin DC” value (human skin DC; 5.6 nM mitoxantrone with GM-CSF and IL-4, intradermal, 2 days) was 50-60%. The “amount of migrated skin DC” value (human skin DC; 16.7 nM mitoxantrone with GM-CSF and IL-4, intradermal, 2 days) was “only slightly increased” and the “amount of skin emigrating DC” value (human skin DC; low dose of mitoxantrone in plain medium, intradermal) was “increased the amount of skin emigrating DC”.

Reference: patent US8470789B2, “Method for inducing and accelerating cells” (DCPrime B.V., priority 2008, dated 2013)
